Reference: US20250027086A1, “COMPOSITIONS AND METHODS FOR TREATMENT OF CANCERS USING MODIFIED siRNA-GEM AGENTS” (Sirnaomics, Inc., priority 2022, published 2025)
Entries after “also recorded” stand apart in the source; their conditions may differ. Where two headings read alike, the source gives them in different places. One block for each compound: values may come before it.

How the values were obtained:
OVCAR3 cells = test: Cell viability in ovarian cancer cell line OVCAR3; assay type: cell-based; conditions: OVCAR3, 800 cells per well; FIG. 13(b)
Protocol: (§1) MIA PaCa-2, […], LS180, HT1376, HT29, H358, H1299, OVCAR-3, HTB-9 and Panc 10.05 cells were obtained from ATCC (Rockville, MD). MiaPaCa cells were cultured in DMEM medium supplemented with 10% FBS. H358, H1299, HTB-9, N87 and Panc 10.05 cells were cultured in DMEM/10% FBS; LS180 and HT1376 in EMEM/10% FBS; HT29 cells in McCoy5A/10% FBS; OVCAR-3 cells were incubated in RPMI/20% FBS. All cells were maintained at 37 degrees C. in an atmosphere containing 5% CO^2.
(§2) The day before transfection, cells were seeded in a 384-well plate at an optimal density of between 300 and 800 cells/well. […]
(§3) Ninety-six hours following the addition of GEM or transfection mixtures, the number of viable cells was determined with CellTiter-Glo®-2.0 reagent (Promega, Madison, WI) by measuring luminescent signal using a Cytation 5 plate reader (BioTek Inc, Winooski, VT). […]
(§4) Using the same or similar experimental condition as are described above in Example 1, the effects of (i) PGN7 (SEQ. ID No. 9-10) plus a non-signaling oligonucleotide (“NS”), (ii) BCLxL #5 (SEQ. ID No. 14)+NS, and (iii) PGN7 and BCLxL #5 in combination were evaluated and are shown in triple negative breast cancer (MDA-MB231) and ovarian cancer (OVCAR3) cell lines in FIGS. 13 (a)-(b). […]

MDA-MB231 cells = test: Cell viability in triple negative breast cancer cell line MDA-MB231; assay type: cell-based; conditions: MDA-MB231, 400 cells per well; FIG. 13(a)
Protocol: as §1, §2, §3, §4

MiaPaCa-2 cells = test: Cell viability (CellTiter-Glo) in MiaPaCa-2 pancreatic cancer cells after transfection; assay type: cell-based, human; conditions: Homo sapiens, MIA PaCa-2
Protocol: as §1
(§5) The day before transfection, cells were seeded in a 384-well plate at an optimal density of between 300 and 800 cells/well. The next day, ten 3-fold serial dilutions of single, modified-backbone siRNAs or PGN6/PGN7 siRNA and Gemcitabine (GEM) mixed with siRNAs: Wee1 #7, KRAS #1, MCL1 #3 or DM2-P47 siRNAs at 1:1 ratio were prepared and combined with diluted Lipofectamine RNAiMAX (Life Technologies, Carlsbad, CA). Within 20 minutes, 10 μl of the transfection mixtures were added to the cells in a 40 μL medium. The final concentrations of siRNAs or Gemcitabine in the wells ranged from 100 nM to 0.002 nM.
(§6) Ninety-six hours following the addition of GEM or transfection mixtures, the number of viable cells was determined with CellTiter-Glo®-2.0 reagent (Promega, Madison, WI) by measuring luminescent signal using a Cytation 5 plate reader (BioTek Inc, Winooski, VT). The treatment group (n=4) mean (±SD) was compared to those of non-treated controls and were reported as relative cell viability.

[1] = tested on: HT1376, HTB-9, N87 and OVCAR-3 cell lines; test: Cell viability in urinary bladder, gastric and ovarian cancer cell lines; assay type: cell-based; conditions: HT1376, HTB-9, N87, OVCAR-3; FIGS. 9-10
Protocol: as §1, §2, §3
Using the same or similar experimental condition as are described above in Example 1, the effects of PGN7 (SEQ. ID No. 9-10), Wee1 (SEQ. ID No. 13), BCLxL #5 (SEQ. ID No. 14) or the PGN7+Wee1, or PGN+BCLxL combinations were evaluated and are shown in HT1376 (400 cells/well) and HTB-9 (800 cells/well) urinary bladder cancer cell lines, N87 (600 cells/well) gastric cancer cell line, and OVCAR-3 (800 cells/well) ovarian cancer line in FIGS. 11 (a)-(d). […]

[2] = tested on: MIA PaCa-2 human pancreatic cancer xenograft; test: PGN6 efficacy on pancreatic tumor growth in NOD/SCID mice inoculated with MIA PaCa-2; assay type: in vivo, mouse
From the text: Twenty, 6- to 9-week old NOD/SCID female mice were purchased from the Jackson Laboratory. Each mouse was tagged for identification at the beginning of the study. Up to 5 mice were housed in a single cage with standard corn cob bedding for a minimum of three days for stabilization; bedding was changed every two weeks. Fluorescent lighting was provided on a 12-hour cycle; temperature was maintained between 68-79 degrees F. at 30-70 percent humidity. Mice were fed an 18 percent soy irradiated rodent feed (Envigo) and autoclaved acidified water (pH 2.5-3) were available to all animals ad libitum. The mice were observed daily for clinical signs of disease.
Tumor cell preparation: Cryogenic vials containing tumor cells were thawed and cultured according to the manufacturer's protocol. On the day of inoculation, cells were washed in a serum-free media, counted, and resuspended in cold serum-free media at a concentration of 3 million cells per 100 microliters. […]
Tumor measurement: Mice were monitored weekly for palpable tumors or changes in appearance or behavior. Once tumors were palpable they were measured weekly using calipers. Tumor volume was calculated using the equation: […]
Once tumors were on average between 150-250 mm^3 in volume, tumors and body weights were measured at least twice weekly for the duration of the study. […]

[3] = tested on: pancreatic, lung and colon cancer cell lines; test: Cell viability in pancreatic, lung and colon cancer cell lines; assay type: cell-based
Protocol: as §1, §5, §6
Using the same experimental conditions as are described above in Example 1, the efficacy on cell viability was evaluated for PGN6 (SEQ. ID Nos. 7-8), with and without lipofentamine (“lipo”) in three types of cancer cell lines. FIG. 3 (a)-(c) show the effects of PGN6, with and without lipo on cell viability at increasing siRNA levels in pancreatic cancer cell lines. FIG. 4 (a)-(b) similarly show the effects of these variants on cell viability in lung cancer cell lines; FIG. 5 (a)-(b) show the effects of these variants on cell viability in colon cancer cell lines. All data are shown as mean±SD. […]
Using the same experimental conditions as are described above in Example 1, the efficacy of STD1 (SEQ. ID Nos. 1-2), PGN6 (SEQ. ID Nos. 7-8) and PGN7 (SEQ. ID Nos. 9-10) were evaluated in three types of cancer cell lines. […]
Using the same experimental conditions as are described above in Example 1, the efficacy of PGN7 (SEQ. ID No. 9-10) alone and its combination with WEE1 #7 (SEQ. ID No. 13) was evaluated in three types of cancer cell lines. […]
Using the same experimental conditions as are described above in Example 1, the efficacy of PGN7 (SEQ. ID No. 9-10) and the combination of BCLxL #5 (SEQ. ID No. 14) and PGN7 was evaluated in three types of cancer cell lines. […]

Compound: BCLxL #5: siRNA sequence used to target BCLxL, SEQ. ID No. 14 (no GEM) (GCGTGGAAAGCGTAGACAAGGAGAT; listed as DNA, chemistry not given here)
IC50 (OVCAR3 cells): 2.7 nM
IC50 (MDA-MB231 cells): 0.5 nM

IC50 (MiaPaCa-2 cells; in combination with lipofectamine, 96 h, n=4 (FIG. 2), read-out: IC50, MiaPaCa-2 cell viability): 8 nM
IC50 (MiaPaCa-2 cells; with lipofectamine (GEM alone for gemcitabine), FIG. 2, read-out: ID50, MiaPaCa cells): 8 nM
Compound: Nc1ccn([C@@H]2O[C@H](CO)[C@@H](O)C2(F)F)c(=O)n1 [Gemcitabine, 2′, 2′-difluoro 2′-deoxycytidine]

Compound: WEE1 #7: siRNA sequence used to target WEE1, SEQ. ID No. 13 (no GEM) (CGCTCTGTCAGCCTTACTA; listed as DNA, chemistry not given here)
efficacy on cell viability [1]: significant efficacy

Compound: PGN6: modified siRNA-GEM molecule (SEQ. ID No. 7-8): sense 5′-AAGAAAgAgau [GEM]UGUAU[GEM]AAU-3′; antisense 5′-AuUGAuACAGAUCuCuuucuu[GEM][GEM]dTdT-3′ (sense AAGAAAGAGATCTGTATCAAT; antisense ATTGATACAGATCTCTTTCTTCCTT; GEM modifications; dTdT overhang; modified_base 1 OTHER; 2'-O-methyl modified nucleotide; modified_base 2 OTHER; modified_base 3 OTHER; modified_base 4 OTHER; modified_base 5 OTHER; modified_base 6 OTHER; modified_base 7 OTHER; 2'-fluoro modified nucleotide; modified_b; 2'-O-me)
pancreatic tumor volume / tumor growth ([2]; 2 mg/kg IV twice weekly for three weeks, with DODAB siRNA in HKP(+H), vs control, n=10, FIG. 12(a)): attenuate or prevent tumor growth; also recorded: tumors did not grow; also recorded: attenuating the growth of pancreatic tumors
body weight ([2]; 2 mg/kg twice weekly, 20 days treatment period, FIG. 12(b)): body weight remained constant
effectiveness with lipofectamine versus without lipofectamine ([3]; lung (FIG. 4) and colon (FIG. 5) cancer cell lines): apparently more effective
effectiveness with lipofectamine versus without lipofectamine ([3]; pancreatic lines MiaPaCa (G12C), BXPC3 (WT), Panc10.05, FIG. 3): more effective
reduction of cell viability ([3]; single siRNA against non-silencing control, pancreatic, lung, colon, FIG. 6): effective in reducing cell viability
